Source: ChEMBL document CHEMBL5576124, “Discovery of an Exceptionally Orally Bioavailable and Potent HPK1 PROTAC with Enhancement of Antitumor Efficacy of Anti-PD-L1 Therapy” (J Med Chem, 2024)
Active and inactive are the calls of the source. The rule behind the calls is not given here.

Key:
[1] = biological target: T1, Protein cereblon/Mitogen-activated protein kinase kinase kinase kinase 1 (Homo sapiens, UniProt Q92918+Q96SW2); experiment: PROTAC activity at CRBN/HPK1 in human Jurkat cells assessed as maximal degradation of HPK1 protein incubated for 24 hrs by Western blotting analysis relative to control; assay type: cell-based
Target sequence in this assay (Q92918 whole entry, looked up): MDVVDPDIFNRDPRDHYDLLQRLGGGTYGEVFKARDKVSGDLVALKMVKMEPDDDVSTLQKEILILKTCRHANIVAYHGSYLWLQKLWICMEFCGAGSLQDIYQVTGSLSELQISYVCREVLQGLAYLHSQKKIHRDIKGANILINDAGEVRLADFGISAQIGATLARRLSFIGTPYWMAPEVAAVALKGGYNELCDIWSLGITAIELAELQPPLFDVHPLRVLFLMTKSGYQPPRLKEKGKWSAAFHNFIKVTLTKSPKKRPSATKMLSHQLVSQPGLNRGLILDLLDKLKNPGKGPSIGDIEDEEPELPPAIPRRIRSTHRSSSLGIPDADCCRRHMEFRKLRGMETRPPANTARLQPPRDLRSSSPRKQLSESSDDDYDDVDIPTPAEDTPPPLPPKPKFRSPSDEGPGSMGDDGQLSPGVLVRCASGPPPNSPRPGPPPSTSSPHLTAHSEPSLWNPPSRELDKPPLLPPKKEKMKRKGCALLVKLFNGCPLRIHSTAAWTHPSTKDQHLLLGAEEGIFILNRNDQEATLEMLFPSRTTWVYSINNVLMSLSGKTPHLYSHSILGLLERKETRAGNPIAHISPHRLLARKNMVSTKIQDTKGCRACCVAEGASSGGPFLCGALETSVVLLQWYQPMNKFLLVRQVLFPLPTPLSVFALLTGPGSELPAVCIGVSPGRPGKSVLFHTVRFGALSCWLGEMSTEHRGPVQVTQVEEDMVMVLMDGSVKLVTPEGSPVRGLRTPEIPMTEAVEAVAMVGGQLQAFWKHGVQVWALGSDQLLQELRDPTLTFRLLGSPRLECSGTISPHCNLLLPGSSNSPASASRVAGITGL
Target sequence in this assay (Q96SW2 whole entry, looked up): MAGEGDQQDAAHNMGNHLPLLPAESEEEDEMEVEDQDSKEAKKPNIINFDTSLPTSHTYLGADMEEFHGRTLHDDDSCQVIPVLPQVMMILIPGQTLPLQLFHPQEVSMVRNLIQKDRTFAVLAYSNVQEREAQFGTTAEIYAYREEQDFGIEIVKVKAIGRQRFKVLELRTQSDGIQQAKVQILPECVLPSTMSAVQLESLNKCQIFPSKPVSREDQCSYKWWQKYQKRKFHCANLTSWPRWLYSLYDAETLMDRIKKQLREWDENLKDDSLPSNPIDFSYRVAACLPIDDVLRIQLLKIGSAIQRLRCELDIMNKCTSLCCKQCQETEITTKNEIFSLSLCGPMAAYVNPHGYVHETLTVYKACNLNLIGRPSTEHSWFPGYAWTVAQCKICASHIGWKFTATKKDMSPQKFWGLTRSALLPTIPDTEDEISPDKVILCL

[2] = biological target: T1, Protein cereblon/Mitogen-activated protein kinase kinase kinase kinase 1; experiment: PROTAC activity at CRBN/HPK1 in human Jurkat cells assessed as degradation of HPK1 protein incubated for 24 hrs by Western blotting analysis; assay type: cell-based
Target sequence in this assay (Q92918 whole entry): as the sequence (Q92918 whole entry, looked up) above
Target sequence in this assay (Q96SW2 whole entry): as the sequence (Q96SW2 whole entry, looked up) above

[3] = Tmax in Sprague-Dawley rat at 10 mg/kg,po measured upto 24 hrs by LC-MS analysis; assay type: ADME, organism-based; conditions: in vivo
[4] = Half life in Sprague-Dawley rat at 10 mg/kg,po measured upto 24 hrs by LC-MS analysis; assay type: ADME, organism-based; conditions: in vivo
[5] = AUC (0 to t) in Sprague-Dawley rat at 10 mg/kg,po measured upto 24 hrs by LC-MS analysis; assay type: ADME, organism-based; conditions: in vivo
[6] = Cmax in Sprague-Dawley rat at 10 mg/kg,po measured upto 24 hrs by LC-MS analysis; assay type: ADME, organism-based; conditions: in vivo
[7] = MRT in Sprague-Dawley rat at 10 mg/kg,po measured upto 24 hrs by LC-MS analysis; assay type: ADME, organism-based; conditions: in vivo
CT26 = experiment: Antitumor activity against mouse CT26 cells implanted BALB/c mouse model assessed as tumor growth inhibition at 25 mg/kg,po administrated once daily for 15 days relative to control; assay type: functional; conditions: CT26, 360 h, time 15 day, read-out: TGI
[8] = biological target: Mitogen-activated protein kinase kinase kinase kinase 1 (Homo sapiens, UniProt Q92918); experiment: Inhibition of HPK1 (unknown origin)
T-cell line = experiment: Immunostimulatory activity in human T cell assessed as increase in IL-2 secretion at 10 uM relative to control; assay type: functional
Jurkat [9] = experiment: Antiproliferative activity against human Jurkat cells assessed as inhibition of cell growth at 2 uM incubated for 3 days by CCK-8 assay; assay type: functional, cell-based; conditions: time 3.0 day
Jurkat [10] = experiment: Antiproliferative activity against human Jurkat cells assessed as inhibition of cell growth at 10 uM incubated for 3 days by CCK-8 assay; assay type: functional, cell-based; conditions: time 3.0 day
[11] = biological target: T1, Protein cereblon/Mitogen-activated protein kinase kinase kinase kinase 1; experiment: PROTAC activity at CRBN/HPK1 in human Jurkat cells assessed as maximal degradation of HPK1 protein incubated for 24 hrs by Nano-Glo luminescence assay relative to control; assay type: cell-based
Target sequence in this assay (Q92918 whole entry, looked up): as the sequence (Q92918 whole entry, looked up) above
Target sequence in this assay (Q96SW2 whole entry, looked up): as the sequence (Q96SW2 whole entry, looked up) above

Mitogen-activated protein kinase kinase kinase kinase 1, sequence (Q92918 whole entry): as the sequence (Q92918 whole entry, looked up) above

Row | SMILES | Emax [1] | DC50 [2] | other results
1 | Cc1cc(-c2c[nH]c3ncc(-c4ccc(C5CCN(CC6CCN(c7ccc8c(c7)C(=O)N(C7CCC(=O)NC7=O)C8=O)CC6)CC5)cc4)nc23)ccc1C(=O)N(C)C (stereo not drawn) | 84.1% | 420 nM | –
2 | Cc1cc(-c2c[nH]c3ncc(-c4ccc(C5CCN(c6ccc7c(c6)C(=O)N(C6CCC(=O)NC6=O)C7=O)CC5)cc4)nc23)ccc1C(=O)N(C)C (stereo not drawn) | 3.4% | > 10000 nM | –
3 | Cc1cc(-c2c[nH]c3ncc(-c4ccc(C5CCN(C(=O)CNc6cccc7c6C(=O)N(C6CCC(=O)NC6=O)C7=O)CC5)cc4)nc23)ccc1C(=O)N(C)C (stereo not drawn) | 0.1% | > 10000 nM | –
4 | Cc1cc(-c2c[nH]c3ncc(-c4ccc(C5CCN(CC6CCN(C7CN(c8ccc9c(c8)C(=O)N(C8CCC(=O)NC8=O)C9=O)C7)CC6)CC5)cc4)nc23)ccc1C(=O)N(C)C (stereo not drawn) | 38% | > 10000 nM | –
5 | Cc1cc(-c2c[nH]c3ncc(-c4ccc(N5CCN(CC6CCN(c7ccc8c(c7)C(=O)N(C7CCC(=O)NC7=O)C8=O)CC6)CC5)cc4)nc23)ccc1C(=O)N(C)C (stereo not drawn) | 59.9% | 33.9 nM | Tmax [3]: 4 h; half-life [4]: 1000 min; AUC(0-t) at 24 h [5]: 9970 ng·h/mL; Cmax [6]: 636 ng/mL; MRT [7]: 24.6 h
6 | Cc1cc(-c2c[nH]c3ncc(-c4cc(C)c5c(c4)CN(C)CC5)nc23)ccc1C(=O)N(C)C | – | – | inhibition in vivo at 25 mg/kg (CT26): 16.5%; IC50 [8]: 5.82 nM; Activity (T-cell line): 34.15%; Activity (Jurkat [9]): Active; Activity (Jurkat [10]): Active
7 | Cc1cc(-c2c[nH]c3ncc(-c4ccc(C5CCN(C6CN(C(=O)C7CCN(c8ccc(C(=O)NC9CCC(=O)NC9=O)cc8)CC7)C6)CC5)cc4)nc23)ccc1C(=O)N(C)C (stereo not drawn) | 24.2% | > 10000 nM | –
8 | Cc1cc(-c2c[nH]c3ncc(-c4ccc(C5CCN(c6cccc7c6C(=O)N(C6CCC(=O)NC6=O)C7=O)CC5)cc4)nc23)ccc1C(=O)N(C)C (stereo not drawn) | 2.8% | > 10000 nM | –
9 | Cc1cc(-c2c[nH]c3ncc(-c4ccc(C5CCN(C(=O)C6CCN(c7ccc8c(c7)C(=O)N(C7CCC(=O)NC7=O)C8=O)CC6)CC5)cc4)nc23)ccc1C(=O)N(C)C (stereo not drawn) | 63.6% | 1750 nM | –
10 | Cc1cc(-c2c[nH]c3ncc(-c4ccc(N5CCN(C6CN(c7ccc8c(c7)C(=O)N(C7CCC(=O)NC7=O)C8=O)C6)CC5)cc4)nc23)ccc1C(=O)N(C)C (stereo not drawn) | 68.3% | 28.2 nM | –
11 | Cc1cc(-c2c[nH]c3ncc(-c4ccc(N5CCN(CC6CCN(c7ccc8c(c7)C(=O)N(C7CCC(=O)NC7=O)C8=O)C6)CC5)cc4)nc23)ccc1C(=O)N(C)C (stereo not drawn) | 56.6% | 246 nM | –
12 | Cc1cc(-c2c[nH]c3ncc(-c4ccc(C5CCN(C6CN(c7cc8c(cc7F)C(=O)N(C7CCC(=O)NC7=O)C8=O)C6)CC5)cc4)nc23)ccc1C(=O)N(C)C (stereo not drawn) | 84.2% | 78.8 nM | –
13 | Cc1cc(-c2c[nH]c3ncc(-c4ccc(C5CCN(C6CN(c7cccc8c7C(=O)N(C7CCC(=O)NC7=O)C8=O)C6)CC5)cc4)nc23)ccc1C(=O)N(C)C (stereo not drawn) | 64.9% | 152 nM | –
14 | Cc1cc(-c2c[nH]c3ncc(-c4ccc(C5CCN(CC6CCN(c7ccc8c(c7)C(=O)N(C7CCC(=O)NC7=O)C8=O)C6)CC5)cc4)nc23)ccc1C(=O)N(C)C (stereo not drawn) | 84.1% | 78.8 nM | –
15 | Cc1cc(-c2c[nH]c3ncc(-c4ccc(C5CCN(C6CN(C(=O)C7CCN(c8ccc9c(c8)C(=O)N(C8CCC(=O)NC8=O)C9=O)CC7)C6)CC5)cc4)nc23)ccc1C(=O)N(C)C (stereo not drawn) | 30.1% | > 10000 nM | –
16 | Cc1cc(-c2c[nH]c3ncc(-c4ccc(C5CCN(C6CN(CC7CCN(c8ccc(N9CCC(=O)NC9=O)c(C)c8)CC7)C6)CC5)cc4)nc23)ccc1C(=O)N(C)C | 79.3% | 127 nM | –
17 | Cc1cc(-c2c[nH]c3ncc(-c4ccc(N5CCN(CC6CN(c7ccc8c(c7)C(=O)N(C7CCC(=O)NC7=O)C8=O)C6)CC5)cc4)nc23)ccc1C(=O)N(C)C (stereo not drawn) | 94.6% | 134 nM | Tmax [3]: 3 h; half-life [4]: 292 min; AUC(0-t) at 24 h [5]: 16000 ng·h/mL; Cmax [6]: 1500 ng/mL; MRT [7]: 6.84 h

Row | SMILES | Emax [1] | DC50 [2] | other results
18 | Cc1cc(-c2c[nH]c3ncc(-c4ccc(N5CCN(c6ccc7c(c6)C(=O)N(C6CCC(=O)NC6=O)C7=O)CC5)cc4)nc23)ccc1C(=O)N(C)C (stereo not drawn) | 22.3% | > 10000 nM | –
19 | Cc1cc(-c2c[nH]c3ncc(-c4ccc(C5CCN(C6CCN(c7ccc8c(c7)C(=O)N(C7CCC(=O)NC7=O)C8=O)C6)CC5)cc4)nc23)ccc1C(=O)N(C)C (stereo not drawn) | 76.6% | 94 nM | –
20 | Cc1cc(-c2c[nH]c3ncc(-c4ccc(C5CCN(C(=O)CCOc6cccc7c6C(=O)N(C6CCC(=O)NC6=O)C7=O)CC5)cc4)nc23)ccc1C(=O)N(C)C (stereo not drawn) | 6.7% | > 10000 nM | –
21 | Cc1cc(-c2c[nH]c3ncc(-c4ccc(N5CCN(C6CCN(c7ccc8c(c7)C(=O)N(C7CCC(=O)NC7=O)C8=O)CC6)CC5)cc4)nc23)ccc1C(=O)N(C)C (stereo not drawn) | 56.1% | 99.2 nM | –
22 | Cc1cc(-c2c[nH]c3ncc(-c4ccc(C5CCN(C6CN(C(=O)C7CCN(c8ccc(NC9CCC(=O)NC9=O)cc8)CC7)C6)CC5)cc4)nc23)ccc1C(=O)N(C)C (stereo not drawn) | 41.4% | > 10000 nM | –
23 | Cc1cc(-c2c[nH]c3ncc(-c4ccc(C5CCN(C6CN(C7CN(c8ccc9c(c8)C(=O)N(C8CCC(=O)NC8=O)C9=O)C7)C6)CC5)cc4)nc23)ccc1C(=O)N(C)C (stereo not drawn) | 58.1% | 295 nM | –
24 | Cc1cc(-c2c[nH]c3ncc(-c4ccc(C5CCN(C(=O)CCNc6cccc7c6C(=O)N(C6CCC(=O)NC6=O)C7=O)CC5)cc4)nc23)ccc1C(=O)N(C)C (stereo not drawn) | 63.6% | 962 nM | –
25 | Cc1cc(-c2c[nH]c3ncc(-c4ccc(C5CCN(C6CN(C(=O)CNc7cccc8c7C(=O)N(C7CCC(=O)NC7=O)C8=O)C6)CC5)cc4)nc23)ccc1C(=O)N(C)C (stereo not drawn) | 22.7% | > 10000 nM | –
26 | Cc1cc(-c2c[nH]c3ncc(-c4ccc(C5CCN(CCC6CCN(c7ccc8c(c7)C(=O)N(C7CCC(=O)NC7=O)C8=O)CC6)CC5)cc4)nc23)ccc1C(=O)N(C)C (stereo not drawn) | 58.5% | 1060 nM | –
27 | Cc1cc(-c2c[nH]c3ncc(-c4ccc(C5CCN(C(=O)C6CN(c7ccc8c(c7)C(=O)N(C7CCC(=O)NC7=O)C8=O)C6)CC5)cc4)nc23)ccc1C(=O)N(C)C (stereo not drawn) | 42.6% | > 10000 nM | –
28 | Cc1cc(-c2c[nH]c3ncc(-c4ccc(C5CCN(C(=O)CCOCCOCCOc6cccc7c6C(=O)N(C6CCC(=O)NC6=O)C7=O)CC5)cc4)nc23)ccc1C(=O)N(C)C (stereo not drawn) | 56.6% | 245 nM | Tmax [3]: 0.5 h; half-life [4]: 138 min; AUC(0-t) at 24 h [5]: 187 ng·h/mL; Cmax [6]: 118 ng/mL; MRT [7]: 3.6 h
29 | Cc1cc(-c2c[nH]c3ncc(-c4ccc(C5CCN(C6CN(C(=O)Cc7ccc(NC8CCC(=O)NC8=O)cc7)C6)CC5)cc4)nc23)ccc1C(=O)N(C)C (stereo not drawn) | 38.5% | > 10000 nM | –
30 | Cc1cc(-c2c[nH]c3ncc(-c4ccc(N5CCN(CCC6CCN(c7ccc8c(c7)C(=O)N(C7CCC(=O)NC7=O)C8=O)CC6)CC5)cc4)nc23)ccc1C(=O)N(C)C (stereo not drawn) | 48.2% | > 10000 nM | –
31 | Cc1cc(F)c(Nc2nc(-c3ccc4c(c3)N(C3CC(N5CCCCC5)C3)C(=O)C43CCN(CCOCCOCCOCCOCCOCCOCCOCCNc4cccc5c4C(=O)N(C4CCC(=O)NC4=O)C5=O)CC3)cc3ncn(C(C)C)c23)cc1C(=O)NC(C)C (stereo not drawn) | – | – | Emax [11]: > 65%
32 | Cc1cc(-c2c[nH]c3ncc(-c4ccc(C5CCN(C6CN(C(=O)C7CN(c8ccc9c(c8)C(=O)N(C8CCC(=O)NC8=O)C9=O)C7)C6)CC5)cc4)nc23)ccc1C(=O)N(C)C (stereo not drawn) | 39.4% | > 10000 nM | –
33 | Cc1cc(-c2c[nH]c3ncc(-c4ccc(N5CCN(c6cccc7c6C(=O)N(C6CCC(=O)NC6=O)C7=O)CC5)cc4)nc23)ccc1C(=O)N(C)C (stereo not drawn) | 37.9% | > 10000 nM | Tmax [3]: 1 h; half-life [4]: 264 min; AUC(0-t) at 24 h [5]: 4470 ng·h/mL; Cmax [6]: 602 ng/mL; MRT [7]: 6.8 h
